# Source: patent US10934277B2, “Enantiomerically purified GPER agonist for use in treating disease states and conditions” (Linnaeus Therapeutics, Inc., priority 2018, dated 2021)
# How the values were obtained:
# [1] = Solubility measurement in pH buffers; type: physicochemical
# [2] = biological target: CYP2D6 (Homo sapiens, UniProt P10635); experiment: in vitro; type: in vitro ADME
# Description: (§1) Cytochrome P450 Inhibition (HPLC-UV/VIS and HPLC-MS/MS detection)
# (§2) Peak areas corresponding to the metabolite of each substrate were recorded. The percent of control activity was then calculated by comparing the peak area obtained in the presence of the test compound to that obtained in the absence of the test compound. Subsequently, the percent inhibition was calculated by subtracting the percent control activity from 100 for each compound. IC50 values (concentration causing a half-maximal inhibition of control values) were determined by non-linear regression analysis of the concentration-response curve using Hill equation curve fitting.
# [3] = biological target: T1, CYP2C8 (Homo sapiens, UniProt P10632); experiment: in vitro; type: in vitro ADME
# T1 sequence (P10632 1-490): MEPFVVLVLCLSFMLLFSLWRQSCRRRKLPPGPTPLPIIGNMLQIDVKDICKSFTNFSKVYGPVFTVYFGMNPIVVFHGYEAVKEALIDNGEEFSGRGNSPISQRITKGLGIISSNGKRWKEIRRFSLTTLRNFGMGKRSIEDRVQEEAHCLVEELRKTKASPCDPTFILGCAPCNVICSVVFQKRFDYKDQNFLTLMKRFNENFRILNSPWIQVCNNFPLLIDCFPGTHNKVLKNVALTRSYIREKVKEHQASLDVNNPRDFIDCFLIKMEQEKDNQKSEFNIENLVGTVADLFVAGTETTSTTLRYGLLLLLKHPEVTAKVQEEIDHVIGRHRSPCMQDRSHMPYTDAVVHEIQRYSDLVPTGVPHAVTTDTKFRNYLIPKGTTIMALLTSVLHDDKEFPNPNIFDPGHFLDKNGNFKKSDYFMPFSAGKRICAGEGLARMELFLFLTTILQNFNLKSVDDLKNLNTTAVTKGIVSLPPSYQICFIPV
# Description: as §1, §2
# [4] = test system: CYP3A4; experiment: Cytochrome P450 induction in hepatocytes, CYP3A4; type: in vitro ADME; conditions: hepatocytes from three different human cell lines; 1 μM, 10 μM and 100 μM
# [5] = biological target: OPRM1 (Homo sapiens, UniProt P35372); experiment: Off target selectivity assay, OPRM1; type: cell-based; conditions: dose response, concentrations up to 10 μM; read-out: IC50 or EC50 on OPRM1
# Sequence of OPRM1 (P35372 whole entry): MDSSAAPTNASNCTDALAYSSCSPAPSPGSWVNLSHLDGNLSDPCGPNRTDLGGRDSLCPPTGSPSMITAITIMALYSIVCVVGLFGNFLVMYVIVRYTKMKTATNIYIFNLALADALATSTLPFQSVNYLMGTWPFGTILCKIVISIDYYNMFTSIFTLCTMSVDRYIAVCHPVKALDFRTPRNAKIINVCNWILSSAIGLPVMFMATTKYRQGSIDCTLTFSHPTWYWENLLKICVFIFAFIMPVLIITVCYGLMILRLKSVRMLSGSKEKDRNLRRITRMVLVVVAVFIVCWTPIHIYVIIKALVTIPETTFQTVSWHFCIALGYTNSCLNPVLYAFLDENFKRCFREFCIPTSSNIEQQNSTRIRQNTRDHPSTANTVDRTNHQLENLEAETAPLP
# Description: (§3) Final assay vehicle concentration was 1%.
# (§4) For Gi coupled GPCRs, EC80 forskolin was included.
# (§5) DMSO concentration for all readouts is ≤0.2%.
# (§6) Probenicid was prepared fresh. Cells were loaded with dye prior to testing.
# [6] = biological target: CYP2C9 (Homo sapiens, UniProt P11712); experiment: in vitro; type: in vitro ADME
# Sequence of CYP2C9 (P11712 whole entry, species assumed): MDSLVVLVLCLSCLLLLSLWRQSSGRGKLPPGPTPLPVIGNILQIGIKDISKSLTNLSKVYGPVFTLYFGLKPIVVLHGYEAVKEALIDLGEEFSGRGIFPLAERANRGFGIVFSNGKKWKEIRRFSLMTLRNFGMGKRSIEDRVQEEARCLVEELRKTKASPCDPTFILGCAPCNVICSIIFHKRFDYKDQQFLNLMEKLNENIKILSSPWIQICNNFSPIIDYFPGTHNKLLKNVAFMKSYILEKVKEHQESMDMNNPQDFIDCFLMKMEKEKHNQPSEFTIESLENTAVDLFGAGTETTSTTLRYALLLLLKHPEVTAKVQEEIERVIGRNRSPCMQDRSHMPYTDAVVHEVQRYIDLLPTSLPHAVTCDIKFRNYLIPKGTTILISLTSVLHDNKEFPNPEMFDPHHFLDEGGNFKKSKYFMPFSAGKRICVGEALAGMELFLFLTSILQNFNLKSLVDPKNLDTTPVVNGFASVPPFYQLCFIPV
# Description: as §1, §2
# [7] = biological target: T2, ADRA2A (Homo sapiens, UniProt P08913); experiment: Off target selectivity assay, ADRA2A; type: cell-based; conditions: dose response, concentrations up to 10 μM; read-out: IC50 or EC50 on ADRA2A
# T2 sequence (P08913 1-465): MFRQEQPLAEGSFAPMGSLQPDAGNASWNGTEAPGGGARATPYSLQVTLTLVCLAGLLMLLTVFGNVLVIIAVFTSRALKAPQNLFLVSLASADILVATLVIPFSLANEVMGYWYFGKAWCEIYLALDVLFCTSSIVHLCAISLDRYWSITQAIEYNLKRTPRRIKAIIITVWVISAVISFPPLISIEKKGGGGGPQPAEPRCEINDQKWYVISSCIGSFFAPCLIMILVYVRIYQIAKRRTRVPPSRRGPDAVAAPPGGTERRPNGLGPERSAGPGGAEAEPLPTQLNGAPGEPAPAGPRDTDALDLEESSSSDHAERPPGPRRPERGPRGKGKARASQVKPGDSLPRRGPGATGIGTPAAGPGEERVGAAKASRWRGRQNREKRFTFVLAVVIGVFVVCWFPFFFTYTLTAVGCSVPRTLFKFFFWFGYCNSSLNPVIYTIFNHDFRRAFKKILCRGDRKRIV
# Description: as §3, §4, §5, §6
# [8] = biological target: T3, OATP1B3 (Homo sapiens, UniProt Q9NPD5); experiment: Drug transporter fluorometric inhibition, OATP1B3; type: in vitro ADME
# T3 sequence (Q9NPD5 1-702): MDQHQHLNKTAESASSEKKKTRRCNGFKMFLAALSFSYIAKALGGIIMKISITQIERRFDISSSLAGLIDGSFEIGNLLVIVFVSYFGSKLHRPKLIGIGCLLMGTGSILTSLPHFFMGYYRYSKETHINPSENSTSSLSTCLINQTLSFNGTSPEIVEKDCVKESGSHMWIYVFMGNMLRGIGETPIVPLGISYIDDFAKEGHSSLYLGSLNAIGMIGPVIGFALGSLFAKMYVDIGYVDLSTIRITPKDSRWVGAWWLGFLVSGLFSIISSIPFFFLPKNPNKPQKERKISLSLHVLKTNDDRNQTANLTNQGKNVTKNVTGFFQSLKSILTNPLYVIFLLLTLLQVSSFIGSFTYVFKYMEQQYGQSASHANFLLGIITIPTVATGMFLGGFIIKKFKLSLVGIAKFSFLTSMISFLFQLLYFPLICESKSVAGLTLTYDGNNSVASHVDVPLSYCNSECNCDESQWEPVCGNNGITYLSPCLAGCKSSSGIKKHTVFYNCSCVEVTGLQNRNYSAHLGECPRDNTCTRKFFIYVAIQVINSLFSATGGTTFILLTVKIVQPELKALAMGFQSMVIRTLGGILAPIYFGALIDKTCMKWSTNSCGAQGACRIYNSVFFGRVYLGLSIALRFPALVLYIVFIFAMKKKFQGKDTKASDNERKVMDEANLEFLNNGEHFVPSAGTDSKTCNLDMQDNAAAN
# Description: Drug transporter (fluorometric inhibition)
# The percent of control was calculated using the following equation. The percent of inhibition was calculated by subtracting the percent of control from 100. The IC50 value (concentration causing a half-maximal inhibition of the control value) was determined by non-linear regression analysis of the concentration-response curve using the Hill equation.
# Compound is the individual reading in the presence of the test compound. T1 is the mean reading in the absence of the test compound. Background (for P-gp and BCRP) is the mean reading in the presence of the highest effective concentration of the reference inhibitor. Background (for OATP1B1, OATP1B3, OAT1, OAT3, and OCT2) is the mean reading in the absence of both the test compound and the substrate.
# Sequence of CYP2D6 (P10635 whole entry, species assumed): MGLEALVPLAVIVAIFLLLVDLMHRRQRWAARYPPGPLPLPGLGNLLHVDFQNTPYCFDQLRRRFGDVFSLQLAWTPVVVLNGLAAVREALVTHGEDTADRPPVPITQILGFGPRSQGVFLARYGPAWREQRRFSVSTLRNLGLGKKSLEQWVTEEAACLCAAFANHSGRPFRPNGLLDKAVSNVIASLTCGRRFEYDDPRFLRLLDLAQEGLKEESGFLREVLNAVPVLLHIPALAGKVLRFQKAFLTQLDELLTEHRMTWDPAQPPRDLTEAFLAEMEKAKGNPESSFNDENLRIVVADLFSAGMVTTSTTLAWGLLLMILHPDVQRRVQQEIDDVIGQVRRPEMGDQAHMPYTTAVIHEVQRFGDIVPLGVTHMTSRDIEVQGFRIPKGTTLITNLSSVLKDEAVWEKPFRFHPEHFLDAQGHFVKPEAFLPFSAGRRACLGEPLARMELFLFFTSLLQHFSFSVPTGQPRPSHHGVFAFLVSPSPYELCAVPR
"solubility at 24 h ([1]; pH 2, aqueous buffer, thermodynamic from solid, all pH buffers 2.0 to 8.0, 37° C., 24 hrs, read-out: solubility at pH 2.0-8.0)","form change in all the pH buffers ([1]; pH 2.0 to 8.0, after 24 hrs)",inhibition at 10 µM [2],inhibition at 10 µM [3],IC50 [5],inhibition at 10 µM [6],IC50 [7],inhibition at 10 µM [8],SMILES,CYP3A4 induction [4]
< 0.72 µg/mL,No form change was observed,74.3%,66.7%,6.68 µM,–,–,–,"CC(=O)c1ccc2c(c1)[C@@H]1C=CC[C@@H]1[C@H](c1cc3c(cc1Br)OCO3)N2 (single isomer, unassigned) [SRR G-1]",induced at only 10 μM in 2 of the 3 cell lines
–,–,–,–,–,50.4%,2.07 µM,74.3%,"CC(=O)c1ccc2c(c1)[C@H]1C=CC[C@H]1[C@@H](c1cc3c(cc1Br)OCO3)N2 [RSS G-1, 1-((3aR,4S,9bS)-4-(6-bromobenzo[d][1,3]dioxol-5-yl)-3a,4,5,9b-tetrahydro-3H-cyclopenta[c]quinolin-8-yl)ethan-1-one]",–
